Measurements: ChEMBL document CHEMBL1629674, “Surveillance of carbapenem-resistant Pseudomonas aeruginosa isolates from Puerto Rican Medical Center Hospitals: dissemination of KPC and IMP-18 beta-lactamases” (2009)

Assays:
Pseudomonas aeruginosa [1] = assay: Antimicrobial activity against Pseudomonas aeruginosa PS7A with PFGE phenotype 11D obtained from urine of ICU patient by agar dilution method in presence of beta-lactamase inhibitor tazobactam; assay type: functional
Pseudomonas aeruginosa [2] = assay: Antimicrobial activity against Pseudomonas aeruginosa PS43 with PFGE phasotype 2 expressing beta-lactamase KPC-2, OXA-2 obtained from skin of ICU patient by agar dilution method in presence of beta-lactamase inhibitor Tazobactam; assay type: functional
Pseudomonas aeruginosa [3] = assay: Antimicrobial activity against Pseudomonas aeruginosa PS25 with PFGE phenotype 1A obtained from sputum of patient by agar dilution method in presence of beta-lactamase inhibitor tazobactam; assay type: functional
Pseudomonas aeruginosa [4] = assay: Antimicrobial activity against Pseudomonas aeruginosa PS15A with PFGE phasotype 10A obtained from blood of patient by agar dilution method in presence of beta-lactamase inhibitor Tazobactam; assay type: functional
Pseudomonas aeruginosa [5] = assay: Antimicrobial activity against OprD overproducing Pseudomonas aeruginosa PAO1 expressing mexA and oprD by agar dilution method in presence of beta-lactamase inhibitor Tazobactam; assay type: functional
Pseudomonas aeruginosa [6] = assay: Antimicrobial activity against Pseudomonas aeruginosa PS10 with PFGE phenotype 1A expressing beta-lactamase KPC-2 obtained from blood of patient by agar dilution method in presence of beta-lactamase inhibitor tazobactam; assay type: functional
Pseudomonas aeruginosa [7] = assay: Antimicrobial activity against Pseudomonas aeruginosa PS11A with PFGE phasotype 7A obtained from sputum of ICU patient by agar dilution method in presence of beta-lactamase inhibitor Tazobactam; assay type: functional
Pseudomonas aeruginosa [8] = assay: Antimicrobial activity against Pseudomonas aeruginosa PS22 with PFGE phenotype 3A obtained from urine of patient by agar dilution method in presence of beta-lactamase inhibitor tazobactam; assay type: functional
Pseudomonas aeruginosa [9] = assay: Antimicrobial activity against Pseudomonas aeruginosa PS34 with PFGE phenotype 4A obtained from blood of ICU patient by agar dilution method in presence of beta-lactamase inhibitor tazobactam; assay type: functional
Pseudomonas aeruginosa [10] = assay: Antimicrobial activity against Pseudomonas aeruginosa PS20A with PFGE phenotype 11D obtained from skin of patient by agar dilution method in presence of beta-lactamase inhibitor tazobactam; assay type: functional
Pseudomonas aeruginosa [11] = assay: Antimicrobial activity against Pseudomonas aeruginosa PS13 with PFGE phenotype 11E obtained from sputum of ICU patient by agar dilution method in presence of beta-lactamase inhibitor tazobactam; assay type: functional
Pseudomonas aeruginosa [12] = assay: Antimicrobial activity against Pseudomonas aeruginosa PS26 with PFGE phenotype 3A expressing beta-lactamase OXA-2 obtained from sputum of ICU patient by agar dilution method in presence of beta-lactamase inhibitor tazobactam; assay type: functional
Pseudomonas aeruginosa [13] = assay: Antimicrobial activity against Pseudomonas aeruginosa PS21 with PFGE phenotype 11F obtained from skin of patient by agar dilution method in presence of beta-lactamase inhibitor tazobactam; assay type: functional
Pseudomonas aeruginosa [14] = assay: Antimicrobial activity against Pseudomonas aeruginosa PS35 with PFGE phenotype 11A obtained from urine of patient by agar dilution method in presence of beta-lactamase inhibitor tazobactam; assay type: functional
Pseudomonas aeruginosa [15] = assay: Antimicrobial activity against Pseudomonas aeruginosa PS28 with PFGE phenotype 6 expressing beta-lactamase KPC-5 obtained from skin of patient by agar dilution method in presence of beta-lactamase inhibitor tazobactam; assay type: functional
Pseudomonas aeruginosa [16] = assay: Antimicrobial activity against Pseudomonas aeruginosa PS41 with PFGE phenotype 11D obtained from urine of patient by agar dilution method in presence of beta-lactamase inhibitor tazobactam; assay type: functional
Pseudomonas aeruginosa [17] = assay: Antimicrobial activity against Pseudomonas aeruginosa PS1 with PFGE phenotype 9C negative for blaIMP, blaVIM and blaKPC obtained from sputum of patient by agar dilution method in presence of beta-lactamase inhibitor tazobactam
Pseudomonas aeruginosa [18] = assay: Antimicrobial activity against Pseudomonas aeruginosa PS17B with PFGE phenotype 11D expressing beta-lactamase KPC-2 obtained from blood of ICU patient by agar dilution method in presence of beta-lactamase inhibitor tazobactam; assay type: functional
Pseudomonas aeruginosa [19] = assay: Antimicrobial activity against Pseudomonas aeruginosa PS4 with PFGE phasotype 9B expressing beta-lactamase IMP-18 obtained from sputum of patient by agar dilution method in presence of beta-lactamase inhibitor Tazobactam; assay type: functional
Pseudomonas aeruginosa [20] = assay: Antimicrobial activity against Pseudomonas aeruginosa PS18A with PFGE phenotype 11D obtained from CSF of ICU patient by agar dilution method in presence of beta-lactamase inhibitor tazobactam; assay type: functional
Pseudomonas aeruginosa [21] = assay: Antimicrobial activity against Pseudomonas aeruginosa PS14 with PFGE phenotype 10C obtained from sputum of ICU patient by agar dilution method in presence of beta-lactamase inhibitor tazobactam; assay type: functional
Pseudomonas aeruginosa [22] = assay: Antimicrobial activity against Pseudomonas aeruginosa PS2 with PFGE phenotype 10B obtained from urine of ICU patient by agar dilution method in presence of beta-lactamase inhibitor tazobactam; assay type: functional
Pseudomonas aeruginosa [23] = assay: Antimicrobial activity against Pseudomonas aeruginosa PS40 with PFGE phenotype 5 expressing beta-lactamase KPC-2, OXA-2 obtained from urine of patient by agar dilution method in presence of beta-lactamase inhibitor tazobactam; assay type: functional
Pseudomonas aeruginosa [24] = assay: Antimicrobial activity against Pseudomonas aeruginosa PS29 with PFGE phenotype 11D obtained from sputum of patient by agar dilution method in presence of beta-lactamase inhibitor tazobactam; assay type: functional
Pseudomonas aeruginosa [25] = assay: Antimicrobial activity against Pseudomonas aeruginosa PS39 with PFGE phenotype 8 expressing beta-lactamase IMP-18 obtained from urine of patient by agar dilution method in presence of beta-lactamase inhibitor tazobactam; assay type: functional
Pseudomonas aeruginosa [26] = assay: Antimicrobial activity against Pseudomonas aeruginosa PS5 with PFGE phenotype 7A expressing beta-lactamase KPC-2 obtained from sputum of ICU patient by agar dilution method in presence of beta-lactamase inhibitor tazobactam; assay type: functional
Pseudomonas aeruginosa [27] = assay: Antimicrobial activity against Pseudomonas aeruginosa PS9 with PFGE phenotype 3B obtained from sputum of patient by agar dilution method in presence of beta-lactamase inhibitor tazobactam; assay type: functional
Pseudomonas aeruginosa [28] = assay: Antimicrobial activity against Pseudomonas aeruginosa PS3 with PFGE phenotype 12 obtained from sputum of ICU patient by agar dilution method in presence of beta-lactamase inhibitor tazobactam; assay type: functional
Pseudomonas aeruginosa [29] = assay: Antimicrobial activity against Pseudomonas aeruginosa PS44 with PFGE phenotype 13 expressing beta-lactamase IMP-18 obtained from blood of patient by agar dilution method in presence of beta-lactamase inhibitor tazobactam; assay type: functional
Pseudomonas aeruginosa [30] = assay: Antimicrobial activity against Pseudomonas aeruginosa PS6A with PFGE phenotype 11A obtained from sputum of ICU patient by agar dilution method in presence of beta-lactamase inhibitor tazobactam; assay type: functional
Pseudomonas aeruginosa [31] = assay: Antimicrobial activity against Pseudomonas aeruginosa PS30 with PFGE phenotype 11D obtained from sputum of patient by agar dilution method in presence of beta-lactamase inhibitor tazobactam; assay type: functional
Pseudomonas aeruginosa [32] = assay: Antimicrobial activity against Pseudomonas aeruginosa PS37 with PFGE phasotype 11D obtained from sputum of patient by agar dilution method in presence of beta-lactamase inhibitor Tazobactam; assay type: functional
Pseudomonas aeruginosa [33] = assay: Antimicrobial activity against Pseudomonas aeruginosa PS33 with PFGE phasotype 9A obtained from blood of patient by agar dilution method in presence of beta-lactamase inhibitor Tazobactam; assay type: functional
Pseudomonas aeruginosa [34] = assay: Antimicrobial activity against Pseudomonas aeruginosa PS36 with PFGE phenotype 11B obtained from urine of patient by agar dilution method in presence of beta-lactamase inhibitor tazobactam; assay type: functional
Pseudomonas aeruginosa [35] = assay: Antimicrobial activity against Pseudomonas aeruginosa PS19A with PFGE phenotype 11C obtained from urine of patient by agar dilution method in presence of beta-lactamase inhibitor tazobactam; assay type: functional
Pseudomonas aeruginosa [36] = assay: Antimicrobial activity against Pseudomonas aeruginosa PS12 with PFGE phasotype 7B obtained from sputum of patient by agar dilution method in presence of beta-lactamase inhibitor Tazobactam; assay type: functional
Pseudomonas aeruginosa [37] = assay: Antimicrobial activity against Pseudomonas aeruginosa PS23 with PFGE phasotype 4A expressing beta-lactamase KPC-2 obtained from blood of patient by agar dilution method in presence of beta-lactamase inhibitor Tazobactam; assay type: functional
Pseudomonas aeruginosa [38] = assay: Antimicrobial activity against Pseudomonas aeruginosa PS31 with PFGE phenotype 11B obtained from skin of patient by agar dilution method in presence of beta-lactamase inhibitor tazobactam; assay type: functional

Measured: MIC

CCN1CCN(C(=O)N[C@@H](C(=O)N[C@@H]2C(=O)N3[C@@H]2SC(C)(C)[C@@H]3C(=O)O)c2ccccc2)C(=O)C1=O [PIPERACILLIN]
256 µg/mL: Pseudomonas aeruginosa [2] | Pseudomonas aeruginosa [8]
32 µg/mL: Pseudomonas aeruginosa [29] | Pseudomonas aeruginosa [33]
128 µg/mL: Pseudomonas aeruginosa [12] | Pseudomonas aeruginosa [15] | Pseudomonas aeruginosa [23] | Pseudomonas aeruginosa [25]
64 µg/mL: Pseudomonas aeruginosa [19] | Pseudomonas aeruginosa [27]
8 µg/mL: Pseudomonas aeruginosa [4] | Pseudomonas aeruginosa [17] | Pseudomonas aeruginosa [28]
4 µg/mL: Pseudomonas aeruginosa [5] | Pseudomonas aeruginosa [21] | Pseudomonas aeruginosa [22]
> 256 µg/mL: all other assays above
